How the values were obtained:
[1] = test system: PI3Kα H1047R mutated cell line T-47D; experiment: Phospho-AKT (Ser473) Inhibition Assay (HTRF), T-47D; type: cell-based; conditions: for IC50: Homo sapiens, T47D, T-47D, 1 hour treatment, read-out: p-AKT Inhibition assay (S473) IC50 T-47D; for Selectivity: SK-BR-3/T-47D (p-AKT): p-AKT (S473) IC50 ratio
How it was run: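 Cells seeded overnight in insulin-supplemented MEM, then treated 1 h with 11-point 1:3 compound dilutions (10 μM to 0.1 nM final, 0.1% DMSO). Lysates assayed for phospho-AKT Ser473 by HTRF; IC50 from 4-parameter logistic fit, normalised to DMSO (max) and 10 μM GDC0077 (min).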

[2] = molecular target: PI3Kα (p110/p85) kinase (wild type, "WT") (Homo sapiens, UniProt P42336); experiment: PI3Kα (p110/p85) kinase ADP-Glo Assay; type: biochemical; conditions: 25 uM ATP
How it was run: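 Wild-type PI3Kα p110/p85 preincubated 30 min at RT with PI(4,5)P2:PS substrate ([…]) and compound ([…]) in HEPES pH7.5 buffer with MgCl2, DTT and BSA; reaction started with 25 µM ATP for 120 min at RT. ADP measured by ADP-Glo luminescence; IC50 from four-parameter logistic fit.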

WT cell line SK-BR-3 [3] = experiment: Cell Proliferation Assay (CellTiter-Glo), SK-BR-3; type: cell-based; conditions: Homo sapiens, 72 h; SK-BR-3, 3 days treatment
Protocol: The SK-BR-3 (ATCC, HTB-30) cell line was obtained from the American Type Culture Collection. Cells were maintained in McCoy' 5A medium (Gibco, REF #16600108) supplemented with 10% Fetal Bovine Serum. Cultures were maintained in a humidified incubator at 37° C. under 5% CO2/95% air.
Cell Proliferation Assay. PI3Kα H1047R mutated cell line T-47D cells and WT cell line SK-BR-3 were seeded at a density of 3×10^3 cells per well in 96 well plate (Xinyou Biotechnology, 062096) in 95 μL of culture medium, overnight. Compounds dissolved in 10 mM stock solutions in DMSO were serially diluted 1:3 in DMSO to generate a 9-point dilution series and plated using an INTEGRA ASSIST Plus pipetting robot. A 20× intermediate compound dilution plate in RPMI1640 medium (200 M starting compound concentration in 2% DMSO) was then prepared. Five μL of intermediate serially diluted compounds were added to the cell plate to final concentrations ranging from […] to 1 nM in 0.1% DMSO. 0.1% DMSO alone was used to establish the maximum signal and medium without cells was for minimum signal. After 3 days treatment, equilibrated the plate and its contents at room temperature for approximately 30 minutes. Added 30 μL CellTiter-Glo® Reagent (Promega, REF #G7571) to each well. Then mixed contents for 5 min on plate shaker to induce cell lysis. Incubated at room temperature for 10 minutes to stabilize luminescent signal. The plates were read on PHERAstar FSX Microplate reader using standard luminescence settings.
Relative IC50 values were determined using luminescence units by calculating percent inhibition with respect to the in-plate “MIN” (medium only) and “MAX” (0.1% DMSO) controls. The data were analyzed using a 4-parameter nonlinear logistic equation (four-parameter logistic concentration-response curve): Y=bottom+[(top−bottom)/1+(X/IC50) slope] • where Y=% inhibition, X=concentration of inhibitor, bottom=minimum value of y attained by curve-fit, top=maximum value of y attained by curve-fit and slope=steepness of curve at the IC50.

WT cell line SK-BR-3 [4] = experiment: Phospho-AKT (Ser473) Inhibition Assay (HTRF), SK-BR-3; type: cell-based; conditions: Homo sapiens; SK-BR-3, 1 hour treatment; read-out: p-AKT Inhibition assay (S473) IC50 SK-BR-3
How it was run: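 SK-BR-3 (PI3Kα WT) cells seeded overnight in MEM with insulin, then treated 1 h with 11-point 1:3 dilutions (10 μM to 0.1 nM, 0.1% DMSO). Lysates read for phospho-AKT Ser473 by HTRF after 4 h antibody incubation at room temperature. IC50 from 4-parameter fit, % inhibition normalized to DMSO (max) and 10 μM GDC0077 (min).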

Sequence of PI3Kα (p110/p85) kinase (wild type, "WT") (P42336 whole entry): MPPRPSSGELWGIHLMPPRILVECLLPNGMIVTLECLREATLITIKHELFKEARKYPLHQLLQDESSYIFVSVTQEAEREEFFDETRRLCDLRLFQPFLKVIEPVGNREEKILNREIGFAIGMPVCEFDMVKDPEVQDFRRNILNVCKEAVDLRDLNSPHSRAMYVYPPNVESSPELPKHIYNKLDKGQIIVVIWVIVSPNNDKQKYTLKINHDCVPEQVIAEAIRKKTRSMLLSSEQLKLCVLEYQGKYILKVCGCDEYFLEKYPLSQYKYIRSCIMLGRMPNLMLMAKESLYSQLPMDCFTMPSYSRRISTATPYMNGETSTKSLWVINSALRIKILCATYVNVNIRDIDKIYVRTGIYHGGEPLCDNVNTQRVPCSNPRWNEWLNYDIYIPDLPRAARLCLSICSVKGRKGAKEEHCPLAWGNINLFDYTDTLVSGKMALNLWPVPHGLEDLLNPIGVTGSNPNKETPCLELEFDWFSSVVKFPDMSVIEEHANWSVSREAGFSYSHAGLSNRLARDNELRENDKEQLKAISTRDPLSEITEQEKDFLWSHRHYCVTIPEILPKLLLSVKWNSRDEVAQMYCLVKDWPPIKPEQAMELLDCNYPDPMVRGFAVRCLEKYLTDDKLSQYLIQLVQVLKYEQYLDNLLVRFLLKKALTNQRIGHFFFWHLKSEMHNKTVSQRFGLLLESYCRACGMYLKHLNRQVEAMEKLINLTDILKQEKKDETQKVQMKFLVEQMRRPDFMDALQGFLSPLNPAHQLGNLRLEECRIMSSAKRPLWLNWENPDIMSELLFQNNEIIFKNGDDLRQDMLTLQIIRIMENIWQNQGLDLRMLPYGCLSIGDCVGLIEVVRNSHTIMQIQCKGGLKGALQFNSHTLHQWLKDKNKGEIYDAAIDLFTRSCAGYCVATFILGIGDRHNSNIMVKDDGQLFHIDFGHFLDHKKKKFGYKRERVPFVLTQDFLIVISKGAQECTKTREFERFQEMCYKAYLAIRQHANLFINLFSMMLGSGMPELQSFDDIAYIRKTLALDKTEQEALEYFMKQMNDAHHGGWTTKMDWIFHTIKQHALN
Sequence of PI3Kα (p110/p85) kinase (wild type, "WT") (P27986 whole entry partner): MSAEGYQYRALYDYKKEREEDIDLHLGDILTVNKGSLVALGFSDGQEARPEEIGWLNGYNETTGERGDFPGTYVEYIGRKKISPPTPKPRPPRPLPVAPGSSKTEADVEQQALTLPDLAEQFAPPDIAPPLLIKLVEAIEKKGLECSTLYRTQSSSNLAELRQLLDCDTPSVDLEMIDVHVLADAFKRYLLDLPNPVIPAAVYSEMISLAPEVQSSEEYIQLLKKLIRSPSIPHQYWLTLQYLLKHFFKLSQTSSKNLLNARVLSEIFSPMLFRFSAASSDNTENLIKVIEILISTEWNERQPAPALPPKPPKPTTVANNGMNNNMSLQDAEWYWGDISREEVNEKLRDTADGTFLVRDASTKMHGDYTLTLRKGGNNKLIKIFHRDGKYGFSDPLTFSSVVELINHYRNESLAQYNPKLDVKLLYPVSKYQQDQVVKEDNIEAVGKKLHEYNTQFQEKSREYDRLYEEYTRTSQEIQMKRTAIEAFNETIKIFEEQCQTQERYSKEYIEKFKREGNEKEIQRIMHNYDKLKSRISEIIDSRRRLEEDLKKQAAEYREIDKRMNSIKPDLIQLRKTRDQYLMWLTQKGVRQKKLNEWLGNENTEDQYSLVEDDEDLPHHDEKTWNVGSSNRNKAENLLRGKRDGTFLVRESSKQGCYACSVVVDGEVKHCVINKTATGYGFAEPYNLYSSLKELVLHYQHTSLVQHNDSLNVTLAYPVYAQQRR

SMILES	IC50 [1]	IC50 [2]	IC50 (WT cell line SK-BR-3 [3])	IC50 (WT cell line SK-BR-3 [4])	Selectivity: SK-BR-3/T-47D (p-AKT) [1]
Cc1cc(C(C)Nc2ccccc2C(=O)O)c2cc(-c3cnn(-c4ccc(C(N)=O)cn4)c3)n(C)c(=O)c2c1 (stereo not drawn) [Example 16, 2-((1-(3-(1-(5-carbamoylpyridin-2-yl)-1H-pyrazol-4-yl)-2,7-dimethyl-1-oxo-1,2-dihydroisoquinolin-5-yl)ethyl)amino)benzoic acid]	1.58 µM	3.67 µM	> 10 µM	> 10 µM	>6.3
Cc1cc(C(C)Nc2ccccc2C(=O)O)c2cc(-c3cccc4cn(C)nc34)n(C)c(=O)c2c1 (stereo not drawn) [Example 22, 2-((1-(2,7-dimethyl-3-(2-methyl-2H-indazol-7-yl)-1-oxo-1,2-dihydroisoquinolin-5-yl)ethyl)amino)benzoic acid]	1.75 µM	52.3 µM	> 10 µM	> 10 µM	>5.7
Cc1cc(C(C)Nc2ccccc2C(=O)O)c2cc(NC(=O)c3ccccc3)n(C)c(=O)c2c1 (stereo not drawn) [Example 24, 2-((1-(3-benzamido-2,7-dimethyl-1-oxo-1,2-dihydroisoquinolin-5-yl)ethyl)amino)benzoic acid]	3.14 µM	39.2 µM	> 10 µM	> 10 µM	>3.1
CC(Nc1ccccc1C(=O)O)c1cccn2c(=O)cc(-c3ccccc3)cc12 (stereo not drawn) [Example 25, 2-((1-(4-oxo-2-phenyl-4H-quinolizin-9-yl)ethyl)amino)benzoic acid]	0.299 µM	23.8 µM	> 10 µM	> 10 µM	>33.4
Cc1cc([C@H](C)Nc2ccccc2C(=O)O)c2cc(-c3ccccc3)n(C)c(=O)c2c1 [Example 31, (S)-2-((1-(2,7-dimethyl-1-oxo-3-phenyl-1,2-dihydroisoquinolin-5-yl)ethyl)amino)benzoic acid]	> 10 µM	> 100 µM	> 10 µM	> 10 µM	–
Cc1cc(C(C)Nc2cccnc2C(=O)O)c2cc(-c3ccc(F)cc3)n(C)c(=O)c2c1 (stereo not drawn) [Example 33, 3-((1-(3-(4-fluorophenyl)-2,7-dimethyl-1-oxo-1,2-dihydroisoquinolin-5-yl)ethyl)amino)picolinic acid]	0.271 µM	55.1 µM	> 10 µM	9.92 µM	36.6
Cc1cc([C@H](C)Nc2ccccc2C(=O)O)c2cc(-c3ccc(F)cc3)n(C)c(=O)c2c1 [Example 35, (S)-2-((1-(3-(4-fluorophenyl)-2,7-dimethyl-1-oxo-1,2-dihydroisoquinolin-5-yl)ethyl)amino)benzoic acid]	> 10 µM	> 100 µM	> 10 µM	> 10 µM	–
Cc1cc(C(C)Nc2ccccc2C(=O)O)c2cc(-c3ccccn3)n(C)c(=O)c2c1 (stereo not drawn) [Example 36, 2-((1-(2,7-dimethyl-1-oxo-3-(pyridin-2-yl)-1,2-dihydroisoquinolin-5-yl)ethyl)amino)benzoic acid]	0.467 µM	50.8 µM	> 10 µM	> 10 µM	>21
Cc1cc(C(C)Nc2ccccc2C(=O)O)c2cc(-c3cccnc3)n(C)c(=O)c2c1 (stereo not drawn) [Example 37, 2-((1-(2,7-dimethyl-1-oxo-3-(pyridin-3-yl)-1,2-dihydroisoquinolin-5-yl)ethyl)amino)benzoic acid]	0.382 µM	12.5 µM	> 10 µM	> 10 µM	>26

More lines, in order of falling IC50 [1], values ahead:

IC50 [1]	IC50 [2]	IC50 (WT cell line SK-BR-3 [3])	IC50 (WT cell line SK-BR-3 [4])	SMILES	Selectivity: SK-BR-3/T-47D (p-AKT) [1]
0.264 µM	61.1 µM	> 10 µM	> 10 µM	Cc1cc(C(C)Nc2ccccc2C(=O)O)c2cc(-c3ccccc3C#N)n(C)c(=O)c2c1 (stereo not drawn) [Example 32, 2-((1-(3-(2-cyanophenyl)-2,7-dimethyl-1-oxo-1,2-dihydroisoquinolin-5-yl)ethyl)amino)benzoic acid]	>38
0.217 µM	6.86 µM	> 10 µM	8.36 µM	COc1ccc(-c2cc3c(C(C)Nc4ccccc4C(=O)O)cc(C)cc3c(=O)n2C)cn1 (stereo not drawn) [Example 15, 2-((1-(3-(6-methoxypyridin-3-yl)-2,7-dimethyl-1-oxo-1,2-dihydroisoquinolin-5-yl)ethyl)amino)benzoic acid]	38.5
0.166 µM	6.56 µM	> 10 µM	2.29 µM	Cc1cc(C(C)Nc2ccccc2C(=O)O)c2cc(-c3ccc4nn(C)cc4c3)n(C)c(=O)c2c1 (stereo not drawn) [Example 19, 2-((1-(2,7-dimethyl-3-(2-methyl-2H-indazol-5-yl)-1-oxo-1,2-dihydroisoquinolin-5-yl)ethyl)amino)benzoic acid]	13.8
0.103 µM	2.03 µM	> 10 µM	1.7 µM	Cc1cc(C(C)Nc2ccccc2C(=O)O)c2cc(-c3ccc(-c4cnn(C)c4)cc3)n(C)c(=O)c2c1 (stereo not drawn) [Example 23, 2-((1-(2,7-dimethyl-3-(4-(1-methyl-1H-pyrazol-4-yl)phenyl)-1-oxo-1,2-dihydroisoquinolin-5-yl)ethyl)amino)benzoic acid]	16.6
0.0851 µM	4.37 µM	> 10 µM	2.32 µM	Cc1cc(C(C)Nc2ccccc2C(=O)O)c2cc(-c3ccc4nc(C)sc4c3)n(C)c(=O)c2c1 (stereo not drawn) [Example 18, 2-((1-(2,7-dimethyl-3-(2-methylbenzo[d]thiazol-6-yl)-1-oxo-1,2-dihydroisoquinolin-5-yl)ethyl)amino)benzoic acid]	27.3
0.0588 µM	7.78 µM	> 10 µM	0.795 µM	Cc1cc(C(C)Nc2ccccc2C(=O)O)c2cc(-c3nc4ccccc4s3)n(C)c(=O)c2c1 (stereo not drawn) [Example 17, 2-((1-(3-(benzo[d]thiazol-2-yl)-2,7-dimethyl-1-oxo-1,2-dihydroisoquinolin-5-yl)ethyl)amino)benzoic acid]	13.5
0.0355 µM	1.34 µM	> 10 µM	5.88 µM	CC(Nc1ccccc1C(=O)O)c1cccc2c(=O)n(C)c(C#Cc3ccccc3)cc12 (stereo not drawn) [Example 21, 2-((1-(2-methyl-1-oxo-3-(phenylethynyl)-1,2-dihydroisoquinolin-5-yl)ethyl)amino)benzoic acid]	165.3
0.0241 µM	10.1 µM	> 10 µM	> 10 µM	CC(Nc1ccccc1C(=O)O)c1cccc2c(=O)n(C)c(-c3ccccc3)cc12 (stereo not drawn) [Example 20, 2-((1-(2-methyl-1-oxo-3-phenyl-1,2-dihydroisoquinolin-5-yl)ethyl)amino)benzoic acid]	>416
0.022 µM	2.5 µM	> 10 µM	2.5 µM	Cc1cc([C@@H](C)Nc2ccccc2C(=O)O)c2cc(-c3ccccc3)n(C)c(=O)c2c1 [Example 30, (R)-2-((1-(2,7-dimethyl-1-oxo-3-phenyl-1,2-dihydroisoquinolin-5-yl)ethyl)amino)benzoic acid]	113.7
0.0202 µM	4.18 µM	> 10 µM	> 10 µM	Cc1cc([C@@H](C)Nc2ccccc2C(=O)O)c2cc(-c3ccc(F)cc3)n(C)c(=O)c2c1 [Example 34, (R)-2-((1-(3-(4-fluorophenyl)-2,7-dimethyl-1-oxo-1,2-dihydroisoquinolin-5-yl)ethyl)amino)benzoic acid]	>494

From patent publication US20260125346A1, “Isoquinolinone Derivatives and 4H-Quinolizinone Derivatives and Pharmaceutical Compositions Thereof for the Treatment of Disease” (BeOne Medicines I GmbH, priority 2023, published 2026)
